# Experiments:
# S. pneumoniae TIGR4 = assay: Bacterial killing assay (CFU/mL reduction after 6 h); assay type: cell-based, Streptococcus pneumoniae; settings: for Δlog CFU reduction in S. pneumoniae strains: TIGR4: log CFU reduction CPP-antisense PNA – log CFU reduction CPP-scPNA; for Reduction of bacterial CFU/mL compared to untreated control (in words): concentration range 2.5 to 20 μM, n = 5
# Description: The impact of different CPPs on the efficacy of antisense PNAs targeting gyrA and rpoB in S. pneumoniae was tested using an in vitro killing assay ([25]). S. pneumoniae strains were incubated for 6 h with CPP-antisense PNA conjugates. We determined the reduction of bacterial CFU/mL caused by different CPP-coupled antisense PNA constructs compared to an untreated control. Three different CPPs were tested: HIV-1 TAT (TAT), oligolysin (K8), and (RXR)4XB (Table 1). Concentration-dependent bactericidal activity was investigated by treatment of S. pneumoniae TIGR4 in a CPP-antisense PNA conjugate concentration range of 2.5 to 20 μM (Fig. 1).
# (§1) After culturing S. pneumoniae strains in BHI, D39 and 19F were diluted to approximately 10^5 CFU/mL in phosphate-buffered saline (PBS):BHI (93%:7%), while TIGR4 was diluted to approximately 10^5 CFU/mL in PBS:BHI (96%:4%). Next, 450-μL volumes of the respective bacterial suspensions, containing approximately 0.5× 10^5 CFU, were transferred to 2-mL reaction tubes. A 50-μL volume of PNA solution was added to a final PNA concentration of 1 to 20 μM or as indicated. Fifty μL H2O served as a mock control. The reaction tubes were incubated for 6 h at 37°C and 7 rpm (Rotor SB3; Stuart, Staffordshire, United Kingdom). The concentration of CPP-PNA that reduced CFU/mL by 50% after 6 h of incubation compared to an untreated control (IC50) was calculated by nonlinear regression analysis using GraphPad Prism software (GraphPad Software, San Diego, CA).
# S. pneumoniae strain D39 = assay: as above; assay type: cell-based, Streptococcus pneumoniae; settings: log CFU reduction CPP-antisense PNA – log CFU reduction CPP-scPNA
# Description: Similar results were obtained with S. pneumoniae strain D39 (Fig. S1). (RXR)4XB-coupled antisense PNAs were more efficient than TAT-coupled antisense PNAs. […] The difference between the target genes anti-gyrA and anti-rpoB was less pronounced in D39 than in TIGR4 (Table 2).
# as §1
# S. pneumoniae strain 19F = assay: as above; assay type: cell-based, Streptococcus pneumoniae; settings: log CFU reduction CPP-antisense PNA – log CFU reduction CPP-scPNA
# Description: Compared to S. pneumoniae strains TIGR4 and D39, strain 19F was clearly affected by incubation with CPP-coupled scPNAs (Fig. S2). Specific antimicrobial activity of TAT-antisense PNAs was low, regardless of the target gene (Fig. S2, Table 2).
# as §1
# [1] = system: G. mellonella larvae infected with S. pneumoniae TIGR4; assay: G. mellonella infection model, larval survival; assay type: in vivo, Galleria mellonella; settings: 10 nmol CPP-PNA/larva; for Effect on survival of infected larvae (in words): data not shown
# Description: Antimicrobial efficiency of CPP-antisense PNA conjugates was evaluated in vivo employing a G. mellonella infection and treatment model ([22], [28]). Larvae were infected with S. pneumoniae strain TIGR4 and subsequently treated with 10 nmol CPP-anti-gyrA PNAs. Treatment with levofloxacin served as a positive control. Larval survival was observed over 7 days.
# Larvae of the greater wax moth (G. mellonella) were obtained from Bugs-International GmbH (Irsingen/Unterfeld, Germany). For infection experiments, S. pneumoniae TIGR4 was grown for 7 h in BHI, washed twice in a 0.9% NaCl solution, and suspended in 0.9% NaCl to a final concentration of approximately 1 × 10^8 CFU/mL. Larvae weighing 150 to 200 mg were infected with 1 × 10^6 to 3 × 10^6 CFU/larva. Bacteria were injected into the hemocoel of the larvae between the last two pairs of prolegs using a microapplicator (World Precision Instruments, LLC, Sarasota, FL) and a fine-dosage syringe (Omnican-F, 0.01 to 1 mL, 0.30 × 12 mm; B. Braun AG, Melsungen, Germany). As mock control, 0.9% NaCl (PNA experiment) or 0.9% NaCl/3% DMSO (levofloxacin experiment) was injected. For CPP-PNA treatment, larvae were injected 30 min postinfection with 10 nmol CPP-PNA/larva. For levofloxacin treatment, larvae were injected 30 min postinfection with 1 or 10 μg levofloxacin/larva. Larvae were incubated for 7 days, and survival was monitored daily ([22]).
substance,measurement,setting,value
"RXRRXRRXRRXRXB-eg-ctgccaagatga [(RXR)4XB-anti-rpoB PNA, (RXR)4XB peptide coupled to antisense PNA against rpoB]",Δlog CFU reduction in S. pneumoniae strains: TIGR4,"S. pneumoniae TIGR4; CPNA 2.5 μM, 6 h",0
same,Δlog CFU reduction in S. pneumoniae strains: TIGR4,"S. pneumoniae TIGR4; CPNA 5 μM, 6 h",0.40
same,Δlog CFU reduction in S. pneumoniae strains: TIGR4,"S. pneumoniae TIGR4; CPNA 10 μM, 6 h",0.66
same,Δlog CFU reduction in S. pneumoniae strains: TIGR4,"S. pneumoniae TIGR4; CPNA 20 μM, 6 h",≥ 1
same,Δlog CFU reduction in S. pneumoniae strains: TIGR4,"S. pneumoniae TIGR4; CPNA 20 μM, 6 h, listed as (RXR)4XB-anti-rpoB",1.58
same,Reduction of bacterial CFU/mL compared to untreated control (in words),"S. pneumoniae TIGR4; TIGR4, 6 h",significant decreases
same,Δlog CFU reduction in S. pneumoniae strains: D39,S. pneumoniae strain D39; CPNA 2.5 μM,0
same,Δlog CFU reduction in S. pneumoniae strains: D39,S. pneumoniae strain D39; CPNA 5 μM,0.16
same,Δlog CFU reduction in S. pneumoniae strains: D39,S. pneumoniae strain D39; CPNA 10 μM,0.61
same,Δlog CFU reduction in S. pneumoniae strains: D39,S. pneumoniae strain D39; CPNA 20 μM,1.98
same,Δlog CFU reduction in S. pneumoniae strains: 19F,S. pneumoniae strain 19F; CPNA 2.5 μM,0.18
same,Δlog CFU reduction in S. pneumoniae strains: 19F,S. pneumoniae strain 19F; CPNA 5 μM,0.17
same,Δlog CFU reduction in S. pneumoniae strains: 19F,S. pneumoniae strain 19F; CPNA 10 μM,0.16
same,Δlog CFU reduction in S. pneumoniae strains: 19F,S. pneumoniae strain 19F; CPNA 20 μM,0.56
same,Effect on survival of infected larvae (in words),[1],did not increase survival
"GRKKRRQRRRYK-eg-ctgccaagatga [TAT-anti-rpoB PNA, HIV-1 TAT (48–57) peptide coupled to antisense PNA against S. pneumoniae rpoB]",Δlog CFU reduction in S. pneumoniae strains: TIGR4,"S. pneumoniae TIGR4; CPNA 2.5 μM, 6 h",0
same,Δlog CFU reduction in S. pneumoniae strains: TIGR4,"S. pneumoniae TIGR4; CPNA 5 μM, 6 h",0
same,Δlog CFU reduction in S. pneumoniae strains: TIGR4,"S. pneumoniae TIGR4; CPNA 10 μM, 6 h",0
same,Δlog CFU reduction in S. pneumoniae strains: TIGR4,"S. pneumoniae TIGR4; CPNA 20 μM, 6 h",0
same,Reduction of bacterial CFU/mL compared to untreated control (in words),"S. pneumoniae TIGR4; TIGR4, 6 h",No reduction of bacterial counts
same,Δlog CFU reduction in S. pneumoniae strains: D39,S. pneumoniae strain D39; CPNA 2.5 μM,0
same,Δlog CFU reduction in S. pneumoniae strains: D39,S. pneumoniae strain D39; CPNA 5 μM,0.11
same,Δlog CFU reduction in S. pneumoniae strains: D39,S. pneumoniae strain D39; CPNA 10 μM,0.16
same,Δlog CFU reduction in S. pneumoniae strains: D39,S. pneumoniae strain D39; CPNA 20 μM,0.51
same,Δlog CFU reduction in S. pneumoniae strains: 19F,S. pneumoniae strain 19F; CPNA 2.5 μM,0.05
same,Δlog CFU reduction in S. pneumoniae strains: 19F,S. pneumoniae strain 19F; CPNA 5 μM,0.05
same,Δlog CFU reduction in S. pneumoniae strains: 19F,S. pneumoniae strain 19F; CPNA 10 μM,0
same,Δlog CFU reduction in S. pneumoniae strains: 19F,S. pneumoniae strain 19F; CPNA 20 μM,0
same,Effect on survival of infected larvae (in words),[1],did not increase survival
"RXRRXRRXRRXRXB-eg-tgcattaata [(RXR)4XB-anti-gyrA PNA, (RXR)4XB peptide coupled to antisense PNA against gyrA]",Δlog CFU reduction in S. pneumoniae strains: TIGR4,"S. pneumoniae TIGR4; CPNA 2.5 μM, 6 h",0
same,Δlog CFU reduction in S. pneumoniae strains: TIGR4,"S. pneumoniae TIGR4; CPNA 5 μM, 6 h",0.98
same,Δlog CFU reduction in S. pneumoniae strains: TIGR4,"S. pneumoniae TIGR4; CPNA 10 μM, 6 h",≥ 1
same,Δlog CFU reduction in S. pneumoniae strains: TIGR4,"S. pneumoniae TIGR4; CPNA 10 μM, 6 h, listed as (RXR)4XB-anti-gyrA",1.80
same,Δlog CFU reduction in S. pneumoniae strains: TIGR4,"S. pneumoniae TIGR4; CPNA 20 μM, 6 h",3.18
same,log CFU reduction,"S. pneumoniae TIGR4; TIGR4, 6 h, 20 μM CPP-PNA",4
same,Reduction of bacterial CFU/mL compared to untreated control (in words),"S. pneumoniae TIGR4; TIGR4, 6 h",significant decreases
same,IC50,"S. pneumoniae TIGR4; TIGR4, 6 h incubation vs untreated control, nonlinear regression, read-out: 50% inhibitory concentration (IC50): concentration that reduced CFU/mL by 50%",630 nM
same,Δlog CFU reduction in S. pneumoniae strains: D39,S. pneumoniae strain D39; CPNA 2.5 μM,0
same,Δlog CFU reduction in S. pneumoniae strains: D39,S. pneumoniae strain D39; CPNA 5 μM,0
same,Δlog CFU reduction in S. pneumoniae strains: D39,S. pneumoniae strain D39; CPNA 10 μM,0.42
same,Δlog CFU reduction in S. pneumoniae strains: D39,S. pneumoniae strain D39; CPNA 20 μM,2.23
same,Δlog CFU reduction in S. pneumoniae strains: 19F,S. pneumoniae strain 19F; CPNA 2.5 μM,0.72
same,Δlog CFU reduction in S. pneumoniae strains: 19F,S. pneumoniae strain 19F; CPNA 5 μM,1.20
same,Δlog CFU reduction in S. pneumoniae strains: 19F,S. pneumoniae strain 19F; CPNA 10 μM,≥ 1
same,Δlog CFU reduction in S. pneumoniae strains: 19F,"S. pneumoniae strain 19F; CPNA 10 μM, listed as (RXR)4XB-anti-gyrA",1.21
same,Δlog CFU reduction in S. pneumoniae strains: 19F,S. pneumoniae strain 19F; CPNA 20 μM,1.48
same,Increase of survival rate,"[1]; 30 min postinfection, 7 days, n = 60",22%

# Source: publication PMC9784828, “Antimicrobial Activity of Peptide-Coupled Antisense Peptide Nucleic Acids in Streptococcus pneumoniae” (Microbiology Spectrum, 2022)
